In brackets after ≈: the same amount, converted by molar mass.
Experiments:
Format in all cases: cell-based, Mycobacterium abscessus
M. abscessus Bamboo [1] = test: Caseum surrogate MBC90 (cMBC90) kill assay; conditions: for MBC: Mycobacteroides abscessus, read-out: cMBC90
Text: (§1) The surrogate matrix was generated as described previously from cultured THP-1 cells (ATCC TIB-202) (mBio, 2023, 14, e0059823). M. abscessus exponential cultures grown in Middlebrook 7H9 broth (Sigma Aldrich) (OD600 0.6-0.9) were spun down and resuspended in water to an OD600 of 7, 0.7, and 0.07. As described for the M. tuberculosis caseum surrogate assay (mnBio, 2023, 14, e0059823), the bacterial suspensions (at three different dilutions resulting in ˜10^9, 10^8, and 10^7 starting CFU/mL, represented by circle, square, and triangle indicators respectively) were added to the caseum surrogate in the ratio 2:1 (vol/wt), briefly homogenized with 1.4-mm zirconia beads, divided evenly into nine 1.5-mL microcentrifuge tubes, and incubated as standing cultures at 37° C. At the indicated time points, tubes were removed and used for CFU enumeration by plating on Middlebrook 7H11 agar (Sigma Aldrich). Separate tubes were used at each time point. To determine the kill curves, cultures with a starting CFU/mL of 10^8 were used (resulting in the middle curve with square indicators). Arrows indicate the time points when drugs were added and the end of the treatment. The experiment was repeated three times independently, yielding similar results. A representative example is shown. Dots and error bars represent means and standard deviations of three technical replicates, respectively.
FIGS. 29A-29M show the Dose-response kill curves against M. abscessus Bamboo in caseum surrogate. M. abscessus cultures were set up as described in the legend of FIG. 28. Bacterial cell suspensions were added to yield a starting CFU of 10^8/mL (FIG. 28, middle growth curve with square indicators). […] The shaded areas indicate drug concentration windows achieved in caseum in vivo. (Antimicrob. Agents Chemother., 2021, 65, e0050621; Antimicrob. Agents Chemother., 2022, 66, e0221221; PLoS Med., 2019, 16, e1002773; ACS Infect. Dis., 2016, 2, 251-267). The experiment was repeated twice independently, yielding similar results. A representative example is shown. Dots and error bars represent means and standard deviations of three technical replicates, respectively. Horizontal dotted lines indicate the cutoff for 1 log reduction in CFU compared to 10-day drug-free control culture. The cMBC90 values shown in Table 16 are the drug concentrations that reduce CFU by 90% relative to the CFU of drug-free controls at day 10. Since the cultures were in the stationary phase on day 5 when drug treatment started, the CFUs of the drug-free cultures at day 10 were similar to the CFUs of the drug-free cultures at day 5 (FIG. 28).
as §1, with “(doi: 10.1128/mbio.00598-23).” for “(mBio, 2023, 14, e0059823).”, “(doi: 10.1128/mbio.00598-23),” for “(mnBio, 2023, 14, e0059823),”, “CFU/mL)” for “CFU/mL, represented by circle, square, and triangle indicators respectively)”, “curves for the drugs,” for “curves,”, “used.” for “used (resulting in the middle curve with square indicators). Arrows indicate the time points when drugs were added and the end of the treatment.”, “results.” for “results. A representative example is shown. Dots and error bars represent means and standard deviations of three technical replicates, respectively.”
The experiment was repeated twice independently, yielding similar results. A representative example is shown. The cMBC90 values shown in Table 16 are the drug concentrations that reduce CFU by 90% relative to the CFU of drug-free controls at day 10. […]

M. abscessus Bamboo [2] = test: MIC assay, clinical isolate Bamboo; conditions: Mycobacteroides abscessus; broth, M. abscessus Bamboo; Table 16; read-out: MIC
M. abscessus Bamboo [3] = test: Broth MBC90 (bMBC90); conditions: Mycobacteroides abscessus
Text: Broth MIC, broth MBC90 (bMBC90), and caseum surrogate MBC90 ([…]) of clinically used antibiotics and of novel ADP-ribosylation-resistant rifabutin analogs against M. abscessus Bamboo have been evaluated.

Row | SMILES | cMBC90/bMBC90 (M. abscessus Bamboo [1]; 5-day assays) | MBC (M. abscessus Bamboo [1]; 120 h) | MIC (M. abscessus Bamboo [2]) | MBC (M. abscessus Bamboo [3]; 120 h, broth, 5 days) | cMBC90/bMBC90 (M. abscessus Bamboo [1]; 10-day assays) | MBC (M. abscessus Bamboo [1]; 240 h, caseum surrogate, assay extended to 10 days) | MBC (M. abscessus Bamboo [3]; 240 h, assay extended to 10 days)
1 | NCC[C@H](O)C(=O)N[C@@H]1C[C@H](N)[C@@H](O[C@H]2O[C@H](CN)[C@@H](O)[C@H](O)[C@H]2O)[C@H](O)[C@H]1O[C@H]1O[C@H](CO)[C@@H](O)[C@H](N)[C@H]1O [Amikacin] | 0.3 | 12 µM (≈ 7.03 µg/mL) | 25 µM (≈ 14.6 µg/mL) | 40 µM (≈ 23.4 µg/mL) |  |  | 
2 | COc1nc2ccc(Br)cc2cc1[C@@H](c1ccccc1)[C@@](O)(CCN(C)C)c1cccc2ccccc12 [Bedaquiline, bedaquiline] |  |  | 0.4 µM (≈ 0.222 µg/mL) |  | 33.5 | 67 µM (≈ 37.2 µg/mL) | 2 µM (≈ 1.11 µg/mL)
3 | CO[C@@]1(NC(=O)Cc2cccs2)C(=O)N2C(C(=O)O)=C(COC(N)=O)CS[C@@H]21 [Cefoxitin, cefoxitin] | 0.78 | 35 µM (≈ 15 µg/mL) | 29 µM (≈ 12.4 µg/mL) | 45 µM (≈ 19.2 µg/mL) |  |  | 
4 | CC(C)/N=c1\cc2n(-c3ccc(Cl)cc3)c3ccccc3nc-2cc1Nc1ccc(Cl)cc1 [Clofazimine, clofazimine] |  | > 128 µM | 12.5 µM (≈ 5.92 µg/mL) | > 128 µM |  |  | 
5 | C[C@@H](O)[C@H]1C(=O)N2C(C(=O)O)=C(SCCN=CN)C[C@H]12 [Imipenem, imipenem] | 2.3 | 42 µM (≈ 12.6 µg/mL) | 10 µM (≈ 2.99 µg/mL) | 18 µM (≈ 5.39 µg/mL) |  |  | 
6 | CC(=O)NC[C@H]1CN(c2ccc(N3CCOCC3)c(F)c2)C(=O)O1 [Linezolid, linezolid] | 16 | 512 µM (≈ 173 µg/mL) | 25 µM (≈ 8.43 µg/mL) | 32 µM (≈ 10.8 µg/mL) |  |  | 
7 | COc1c(N2C[C@@H]3CCCN[C@@H]3C2)c(F)cc2c(=O)c(C(=O)O)cn(C3CC3)c12 [Moxifloxacin, moxifloxacin] | 4 | 8 µM (≈ 3.21 µg/mL) | 6 µM (≈ 2.41 µg/mL) | 2 µM (≈ 0.803 µg/mL) |  |  | 
